Test results from paper PMC5006034 (Scientific Reports, 2016).

Molecular target: T1, hP2X2R (Homo sapiens, UniProt Q9UBL9)
T1 construct: gene P2RX2
T1 sequence (Q9UBL9 1-471): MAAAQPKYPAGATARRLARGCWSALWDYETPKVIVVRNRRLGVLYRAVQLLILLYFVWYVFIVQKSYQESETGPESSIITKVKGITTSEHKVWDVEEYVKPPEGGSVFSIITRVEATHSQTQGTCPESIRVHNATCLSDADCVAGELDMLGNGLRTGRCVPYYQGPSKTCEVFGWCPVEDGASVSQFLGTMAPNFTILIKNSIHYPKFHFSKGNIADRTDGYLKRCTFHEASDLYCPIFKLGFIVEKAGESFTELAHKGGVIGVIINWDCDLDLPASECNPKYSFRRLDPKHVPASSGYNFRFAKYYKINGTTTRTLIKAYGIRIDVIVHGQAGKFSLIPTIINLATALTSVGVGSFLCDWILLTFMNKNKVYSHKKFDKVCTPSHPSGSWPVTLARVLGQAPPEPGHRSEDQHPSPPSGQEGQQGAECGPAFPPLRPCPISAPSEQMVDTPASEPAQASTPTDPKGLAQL
Test: Ca2+ imaging in cells expressing hP2X2R (outsourced selectivity assay)
Assay type: cell-based

In the case of `O=C1CC(=O)N(c2cccc(-c3noc(=S)[nH]3)c2)c2ccc3ccccc3c2N1` [NP-1815-PX, 5-[3-(5-thioxo-4H-[1,2,4]oxadiazol-3-yl)phenyl]-1H-naphtho[1,2-b][1,4]diazepine-2,4(3H,5H)-dione], the IC50 is reported as 7.3 µM.
